Experimental data published in US20170246311A1, “PEPTIDES FOR BINDING ALTERNATIVELY ACTIVATED MACROPHAGES” (University of Washington, priority 2016, published 2017).
Each block holds one molecule with its values, some of them ahead of it. Starred links: 1 amine or outer side, 2 acyl side, 3 side chain; linkers in the order of their positions; H or OH if unused. Positions of bridges follow the written chain, without caps; N, C: chain ends. Non-standard residues stand in square brackets, D forms with d. Residues, ends and D or L forms follow the SMILES beside them. No end group written: not given here. *: point of attachment. Perfluorobiphenyl(4,4') = Fc1c(F)c([*:1])c(F)c(F)c1-c1c(F)c(F)c([*:2])c(F)c1F; Biotin = O=C1N[C@H]2[C@H](CS[C@H]2CCCCC(=O)*)N1; Phe(F5) = N[C@@H](Cc1c(F)c(F)c(F)c(F)c1F)C(=O)O

Tests used:
[1] = Solubility of cyclized peptide analogs
[2] = molecular target: M2pep receptor on M2 macrophages (identity unknown) (mouse); assay: flow cytometry binding curves on murine M2 macrophages
[3] = molecular target: M2pep receptor on M2 macrophages (identity unknown) (mouse); assay: flow cytometry on murine M2 macrophages, biotinylated peptide + streptavidin-FITC; apparent KD from half-maximal MFI
[4] = system: macrophages; format: cell-based, mouse
[5] = molecular target: M2pep receptor on M2 macrophages (identity unknown) (mouse); assay: flow cytometry on murine M2 macrophages; apparent KD

Molecule: CC(C)[C@@H]1NC(=O)CNC(=O)[C@H](Cc2c[nH]c3ccccc23)NC(=O)[C@@H]2CCCN2C(=O)[C@H](CC(=O)O)NC(=O)[C@H](CCC(N)=O)NC(=O)[C@H](CCC(=O)O)NC(=O)[C@H](Cc2ccc(O)cc2)NC(=O)CNC(=O)[C@@H](N)CSc2c(F)c(F)c(c(F)c2F)-c2c(F)c(F)c(c(F)c2F)SC[C@@H](C(=O)N[C@H](CCCCN)C(=O)N[C@H](CCCCN)C(=O)N[C@H](CCCCN)C(=O)N[C@@H](CCCCNC(=O)CCCC[C@@H]2SC[C@@H]3NC(=O)N[C@@H]32)C(N)=O)NC(=O)CNC(=O)[C@H](Cc2ccc(O)cc2)NC(=O)[C@H](Cc2c[nH]c3ccccc23)NC(=O)[C@H](Cc2ccc(O)cc2)NC(=O)[C@H](CCCNC(=N)N)NC1=O [DFBP-cyclized M2pep(RY)Biotin] (H-CGYEQDPWGVRYWYGC[dK][dK][dK]K(Biotin)-NH2; linker 1-16 via Perfluorobiphenyl(4,4'))
solubility (in words) [1]: higher solubility than FF-cyclized M2pep(RY)Biotin

B1: M2pepBiotin (peptide)
peptide: YEQDPWGVKWWYGGGSKKK(Biotin)-NH2
Kd [5]: 220 µM

More lines, main results first:

solubility (in words) [1]: significantly reduces solubility
Molecule: CC(C)[C@@H]1NC(=O)CNC(=O)[C@H](Cc2c[nH]c3ccccc23)NC(=O)[C@@H]2CCCN2C(=O)[C@H](CC(=O)O)NC(=O)[C@H](CCC(N)=O)NC(=O)[C@H](CCC(=O)O)NC(=O)[C@H](Cc2ccc(O)cc2)NC(=O)CNC(=O)[C@H](Cc2ccccc2)NC(=O)[C@H](Cc2ccccc2)NC(=O)[C@@H](N)CSSC[C@@H](C(=O)N[C@H](CCCCN)C(=O)N[C@H](CCCCN)C(=O)N[C@H](CCCCN)C(=O)N[C@@H](CCCCNC(=O)CCCC[C@@H]2SC[C@@H]3NC(=O)N[C@@H]32)C(N)=O)NC(=O)CNC(=O)[C@H](Cc2ccc(O)cc2)NC(=O)[C@H](Cc2c[nH]c3ccccc23)NC(=O)[C@H](Cc2ccc(O)cc2)NC(=O)[C@H](CCCNC(=N)N)NC1=O [FF-cyclized M2pep(RY)Biotin] (H-CFFGYEQDPWGVRYWYGC[dK][dK][dK]K(Biotin)-NH2; disulfide 1-18)

fold enhancement of binding activity against DFBP-cyclized M2pepBiotin [2]: 4 fold
Kd [3]: 2.03 µM
Molecule: DFBP-cyclized M2pep(RY)Biotin (peptide)

solubility (in words) [1]: less soluble than the FF-cyclized analog
Molecule: CC(C)[C@@H]1NC(=O)CNC(=O)[C@H](Cc2c[nH]c3ccccc23)NC(=O)[C@@H]2CCCN2C(=O)[C@H](CC(=O)O)NC(=O)[C@H](CCC(N)=O)NC(=O)[C@H](CCC(=O)O)NC(=O)[C@H](Cc2ccc(O)cc2)NC(=O)CNC(=O)[C@H](Cc2c(F)c(F)c(F)c(F)c2F)NC(=O)[C@H](Cc2c(F)c(F)c(F)c(F)c2F)NC(=O)[C@@H](N)CSSC[C@@H](C(=O)N[C@H](CCCCN)C(=O)N[C@H](CCCCN)C(=O)N[C@H](CCCCN)C(=O)N[C@@H](CCCCNC(=O)CCCC[C@@H]2SC[C@@H]3NC(=O)N[C@@H]32)C(N)=O)NC(=O)CNC(=O)[C@H](Cc2ccc(O)cc2)NC(=O)[C@H](Cc2c[nH]c3ccccc23)NC(=O)[C@H](Cc2ccc(O)cc2)NC(=O)[C@H](CCCNC(=N)N)NC1=O [F(F5)F(F5)-cyclized M2pep(RY)Biotin] (H-C[Phe(F5)][Phe(F5)]GYEQDPWGVRYWYGC[dK][dK][dK]K(Biotin)-NH2; disulfide 1-18)
toxicity to macrophages [4]: very toxic to macrophages even at low micromolar concentrations
